In patent US12649783B2, “Anti-MCT1 antibodies and uses thereof” (IMMUNEXT INC., priority 2018, dated 2026):

Assays:
Tr1 cells = experiment: ex vivo Tr1 survival; format: cell-based, human
Protocol: Humanized NSG mice (treated with anti-MCT1) were sacrificed on d32 or other day specified, single cells suspensions were prepared from spleens, followed by bead-based enrichment of hCD3+ cells. Isolated cells were plated with the analytes (see above table) to access Tr1 survival: […]

MCT1 = molecular target: T1, MCT1 (Homo sapiens, UniProt P53985); experiment: bromopyruvate toxicity assay (ATPlite); format: cell-based
T1 construct: HEK-293 WT cells only express MCT1/CD147 and no other MCTs as measured by RT-PCR; endogenous in cells; host or cells: HEK293T
T1 sequence (P53985 1-500): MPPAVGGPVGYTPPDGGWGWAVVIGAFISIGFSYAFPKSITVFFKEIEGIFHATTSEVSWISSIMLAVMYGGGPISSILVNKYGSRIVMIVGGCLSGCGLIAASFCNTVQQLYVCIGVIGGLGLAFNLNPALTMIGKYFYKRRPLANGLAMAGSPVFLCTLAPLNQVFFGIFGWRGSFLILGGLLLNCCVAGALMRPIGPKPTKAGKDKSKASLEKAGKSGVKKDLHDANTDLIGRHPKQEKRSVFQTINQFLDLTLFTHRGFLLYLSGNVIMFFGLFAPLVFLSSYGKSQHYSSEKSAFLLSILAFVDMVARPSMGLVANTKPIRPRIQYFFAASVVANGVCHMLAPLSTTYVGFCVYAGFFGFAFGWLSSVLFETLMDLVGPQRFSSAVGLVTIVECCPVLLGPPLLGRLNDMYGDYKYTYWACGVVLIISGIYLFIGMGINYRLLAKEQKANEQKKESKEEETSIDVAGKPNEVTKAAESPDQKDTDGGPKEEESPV
Protocol: Inhibition of bromopyruvate toxicity. Since MCT1 is the sole transporter necessary for the in vitro efficacy of the anti-cancer toxin bromopyruvate (Reference 66), a second cell-based functional assay was developed to measure the in vitro killing of cells using this toxin at a concentration of 150 μM.
HEK293T cells are pre-treated with anti-MCT1 antibody or small molecular MCT1 inhibitor at 37° C. for 1 hour. Cells are then incubated with a cytotoxic reagent 3-bromopyruvate (3-BrPy) at concentrations that rand from 25 to 500 μM for 2 to 6 hours. ATP from dying cells will be quantified using a commercial viability kit (ATPlite, PerkinElmer) in a 96-well plate and viability measured using luminescence. Reduction of ATP production indicates functionality of the antibody. A positive control antibody is the mouse or chimeric antibody before humanization. A negative control cell line is MCT1/CD147 double knockout 293T cells. Using this assay functional, i.e., antagonistic anti-MCT1 antibodies may be identified.

Molecule: IL-15: Recombinant Human IL-15 (carrier-free), Biolegend 570304
- ex vivo Tr1 survival (Tr1 cells): increased ex vivo Tr1 survival in a dose-dependent manner

B1: LM183: chicken anti-human MCT1 antibody; HC/LC SEQ ID NO: 164/169 (antibody)
heavy: AVTLDESGGGLQTPGGTLSLVCKASGFDFSNYEMLWVRQAPGKGLEYVAGIGDSASYSAYGVAVKGRATISRDNGQSTLRLQLNGLRAEDTGTYYCTKASEGSYWYYEAGGIDTWGHGTEVIVSS
light: ALTQPSSVSANLGGTVKITCSGGGGSYGWYQQKSPGSAPVTVIYDNDKRPSDIPSRFSGSKSGSTATLTITGVRAEDEAVYYCGSAGNSGAFGAGTTLTVL
modifications: HC Protein; LC Protein
- block of human MCT1 function (MCT1): block human MCT1 function
